Experimental data: paper PMC5321434, “Dihydrobenz[e][1,4]oxazepin-2(3H)-ones, a new anthelmintic chemotype immobilising whipworm and reducing infectivity in vivo” (PLoS Neglected Tropical Diseases, 2017)

Tested on: adult T. muris
Test: Ex vivo adult T. muris automated motility assay (primary/secondary screen at 100 μM and dose-response)
Parameters: species or system Trichuris muris
Conditions: for PRIMARY_SCREEN_MINUS_LOG_FOLD_CHANGE_MOVEMENT: primary screen; for PRIMARY_SCREEN_MINUS_LOG_FOLD_CHANGE_MOVEMENT / SECONDARY_SCREEN_MINUS_LOG_FOLD_CHANGE_MOVEMENT: adult T. muris motility; for SECONDARY_SCREEN_MINUS_LOG_FOLD_CHANGE_MOVEMENT: secondary screen
Outline: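 Motility scored after 24 h (37 °C, 5% CO2) by automated imaging of pixel intensity variance, one worm per well, four weekly biological replicates. Worms came from SCID mice infected orally with 200 eggs, harvested day 35; screening at 100 μM final in RPMI-1640/antibiotics, 1% DMSO; curves fitted with four-parameter log-logistic model.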

[1] = combined primary and secondary screen minus log fold change in movement, adult T. muris, 100 μM
[2] = adult T. muris motility screen at 100 μM, combines primary and secondary screen minus log fold change in movement (mean where both are given)

Row | Structure (SMILES) | COMBINED_SCREEN_ACTIVITY [1] | PRIMARY_SCREEN_MINUS_LOG_FOLD_CHANGE_MOVEMENT (100 μM) | SECONDARY_SCREEN_MINUS_LOG_FOLD_CHANGE_MOVEMENT (100 μM) | COMBINED_SCREEN_ACTIVITY [2]
1 | O=C1COCc2ccc(-c3ccccc3)cc2N1CC1CC1 [Compound 24] | 7.227 | 7.227 |  | 
2 | CC(C)N1C(=O)COCc2ccc(-c3cccnc3)cc21 [Compound 13] | -0.8665 | -0.8665 |  | 
3 | O=C1COCc2cc(-c3cccc(CO)c3)ccc2N1Cc1cc(F)cc(F)c1 [Compound 154] | -1.197 | -1.197 |  | 
4 | COc1ccccc1-c1ccc2c(c1)N(CCc1ccccc1)C(=O)COC2 [Compound 121] | 1.0336 | 1.0336 |  | 
5 | CC(=O)Nc1cccc(-c2ccc3c(c2)N(CC2CCCCC2)C(=O)COC3)c1 [Compound 149] | 6.083 | 10.5493 | 1.617 | 
6 | O=C1COCc2cc(-c3cccnc3)ccc2N1Cc1ccc2c(c1)OCO2 [Compound 125] | -0.9605 | -0.9605 |  | 
7 | O=C1COCc2ccccc2N1Cc1cc(F)cc(F)c1 [Compound 23] | -1.442 | -1.442 |  | 
8 | CCCN1C(=O)COCc2cc(Br)ccc21 [Compound 16] | -2.129 | -2.129 |  | 
9 | COc1cc(F)ccc1-c1ccc2c(c1)COCC(=O)N2Cc1ccccc1 [Compound 128] | 3.2501 | 3.2501 |  | 
10 | COc1ccc(F)cc1-c1ccc2c(c1)N(CC1CC1)C(=O)COC2 [Compound 69] | 11.5841 | 10.5493 | 12.6188 | 
11 | O=C1COCc2ccc(-c3cc(F)cc(F)c3)cc2N1CC1CC1 [Compound 48] | 1.875 | 1.875 |  | 
12 | CC(=O)Nc1cccc(-c2ccc3c(c2)N(Cc2ccccc2)C(=O)COC3)c1 [Compound 137] | 5.935 | 5.935 |  | 
13 | COc1cc(F)ccc1-c1cccc2c1COCC(=O)N2C [Compound 32] | -1.894 | -1.894 |  | 
14 | COc1cccc(CN2C(=O)COCc3cc(Br)ccc32)c1 [Compound 103] | 7.462 | 7.462 |  | 
15 | CN1C(=O)COCc2c(-c3ccc4c(c3)OCO4)cccc21 [Compound 27] | -0.9234 | -0.9234 |  | 
16 | COc1ccccc1-c1ccc2c(c1)COCC(=O)N2Cc1ccccc1 [Compound 95] | -1.179 | -1.179 |  | 
17 | CN(C)C(=O)c1ccc(CN2C(=O)COCc3cc(-c4ccc5c(c4)OCO5)ccc32)cc1 [Compound 192] |  | 10.5493 |  | 10.5493
18 | COc1ccc(F)cc1-c1ccc2c(c1)N(CCc1ccccc1)C(=O)COC2 [Compound 147] | 0.4002 | 0.4002 |  | 
19 | O=C1COCc2ccc(-c3cccnc3)cc2N1CCc1ccccc1 [Compound 74] | -0.776 | -0.776 |  | 

Row | Structure (SMILES) | COMBINED_SCREEN_ACTIVITY [1] | PRIMARY_SCREEN_MINUS_LOG_FOLD_CHANGE_MOVEMENT (100 μM) | SECONDARY_SCREEN_MINUS_LOG_FOLD_CHANGE_MOVEMENT (100 μM) | COMBINED_SCREEN_ACTIVITY [2]
20 | COc1ccccc1-c1ccc2c(c1)N(Cc1ccccc1)C(=O)COC2 [Compound 96] | -0.4906 | -0.4906 |  | 
21 | O=C1COCc2ccc(-c3cccnc3)cc2N1Cc1cc(F)cc(F)c1 [Compound 110] | -0.9208 | -0.9208 |  | 
22 | O=C1COCc2ccc(-c3cccnc3)cc2N1Cc1ccc(C(F)(F)F)cc1 [Compound 159] | 11.6591 | 10.6993 | 12.6188 | 
23 | Cc1ccccc1-c1cccc2c1COCC(=O)N2C [Compound 8] | -0.9498 | -0.9498 |  | 
24 | Cn1cc(-c2ccc3c(c2)N(Cc2ccc(C(F)(F)F)cc2)C(=O)COC3)cn1 [Compound 166] | 11.5841 | 10.5493 | 12.6188 | 
25 | O=C1COCc2cc(Br)ccc2N1CCc1ccccc1 [Compound 79] | -0.767 | -0.767 |  | 
26 | CN1C(=O)COCc2c(-c3ccc(F)c(Cl)c3)cccc21 [Compound 33] | 1.432 | 1.432 |  | 
27 | CN1C(=O)COCc2c(-c3cc(F)cc(Cl)c3)cccc21 [Compound 34] | -1.392 | -1.392 |  | 
28 | COc1ccc(-c2ccc3c(c2)N(Cc2ccccc2Cl)C(=O)COC3)cn1 [Compound 153] | 0.2455 | 0.2455 |  | 
29 | COCc1cccc(-c2ccc3c(c2)N(Cc2cccc(OC)c2)C(=O)COC3)c1 [Compound 172] | -0.3707 | -0.3707 |  | 
30 | O=C1COCc2ccc(-c3cccnc3)cc2N1Cc1ccccc1 [Compound 50] | 0.07509 | 0.07509 |  | 
31 | O=C1COCc2ccc(-c3cccc(F)c3)cc2N1CCN1CCOCC1 [Compound 116] | 0.5451 | 0.5451 |  | 
32 | COc1cc(F)ccc1-c1ccc2c(c1)COCC(=O)N2CCc1ccccc1 [Compound 144] | -1.769 | -1.769 |  | 
33 | COc1ccc(-c2ccc3c(c2)N(Cc2cc(F)cc(F)c2)C(=O)COC3)cn1 [Compound 156] | -1.039 | -1.039 |  | 
34 | O=C1COCc2ccc(-c3ccc(F)c(Cl)c3)cc2N1CCN1CCOCC1 [Compound 175] | 0.9531 | 0.9531 |  | 
35 | COCCN1C(=O)COCc2ccc(-c3cc(F)cc(F)c3)cc21 [Compound 56] | -1.686 | -1.686 |  | 
36 | CN1C(=O)COCc2c(-c3cccc(CO)c3)cccc21 [Compound 15] | -0.7825 | -0.7825 |  | 
37 | Cc1ccc(CN2C(=O)COCc3cc(-c4cccc(C#N)c4)ccc32)cc1 [Compound 115] | -2.656 | -2.656 |  | 
38 | CCCN1C(=O)COCc2ccc(Br)cc21 [Compound 18] | -1.618 | -1.618 |  | 

Row | Structure (SMILES) | COMBINED_SCREEN_ACTIVITY [1] | PRIMARY_SCREEN_MINUS_LOG_FOLD_CHANGE_MOVEMENT (100 μM) | SECONDARY_SCREEN_MINUS_LOG_FOLD_CHANGE_MOVEMENT (100 μM) | COMBINED_SCREEN_ACTIVITY [2]
39 | COc1cccc(CN2C(=O)COCc3ccc(-c4ccc5c(c4)OCO5)cc32)c1 [Compound 169] | 0.1266 | 0.1266 |  | 
40 | O=C1COCc2ccc(-c3cccc(F)c3)cc2N1CC1CC1 [Compound 35] | 10.5493 | 10.5493 |  | 
41 | O=C1COCc2cc(-c3ccncc3)ccc2N1CCc1ccccc1 [Compound 75] | 2.679 | 2.679 |  | 
42 | COc1cccc(CN2C(=O)COCc3cc(-c4cccc(O)c4)ccc32)c1 [Compound 126] | 1.18 | 1.18 |  | 
43 | O=C1COCc2cc(-c3cccc(O)c3)ccc2N1Cc1ccccc1 [Compound 78] | -0.318 | -0.318 |  | 
44 | COCCN1C(=O)COCc2ccc(-c3cccc(C(=O)OC)c3)cc21 [Compound 93] | -1.513 | -1.513 |  | 
45 | O=C1COCc2ccc(-c3cc(F)cc(F)c3)cc2N1CCN1CCOCC1 [Compound 139] | -1.36 | -1.36 |  | 
46 | CC(=O)Nc1cccc(-c2ccc3c(c2)N(Cc2cc(F)cc(F)c2)C(=O)COC3)c1 [Compound 185] |  | 10.5493 | 2.906 | 6.728
47 | O=C1COCc2cc(-c3ccncc3)ccc2N1Cc1ccc2c(c1)OCO2 [Compound 124] | 0.4678 | 0.4678 |  | 
48 | COCCN1C(=O)COCc2ccc(-c3cccc(O)c3)cc21 [Compound 37] | -1.788 | -1.788 |  | 
49 | COc1ccccc1-c1ccc2c(c1)COCC(=O)N2Cc1ccc(C)cc1 [Compound 120] | -1.664 | -1.664 |  | 
50 | COc1ccccc1-c1ccc2c(c1)N(CC1CC1)C(=O)COC2 [Compound 42] | 1.209 | 1.209 |  | 
51 | COc1ccccc1-c1ccc2c(c1)COCC(=O)N2Cc1cc(F)cc(F)c1 [Compound 155] | -0.9332 | -0.9332 |  | 
52 | COCCN1C(=O)COCc2ccc(-c3cc(F)cc(Cl)c3)cc21 [Compound 84] | 0.4605 | 0.4605 |  | 
53 | COc1ccccc1-c1cccc2c1COCC(=O)N2Cc1ccccc1 [Compound 94] | 10.5493 | 10.5493 |  | 
54 | O=C1COCc2cc(Br)ccc2N1CC1CCCCC1 [Compound 64] | 3.118 | 3.494 | 2.742 | 
55 | COCc1cccc(-c2ccc3c(c2)N(CCN2CCOCC2)C(=O)COC3)c1 [Compound 158] | -1.5946 | -1.5946 |  | 
56 | O=C1COCc2cc(-c3ccncc3)ccc2N1Cc1ccccc1 [Compound 52] | 0.9757 | 0.9757 |  | 
57 | O=C1COCc2ccc(-c3ccc(Cl)cc3)cc2N1CC1CC1 [Compound 47] | 1.5592 | 1.5592 |  | 
